Reference: patent publication US4174404A, “Deoxynarasin antibiotics” (Eli Lilly and Company, priority 1978, dated 1979)
Converted amounts (≈) assume the structure as drawn. Structures can show the parent of a compound that is named as a salt.

Tests used:
solubility = format: physicochemical; conditions: for solubility in nonpolar organic solvents: nonpolar organic solvents such as hexane; for solubility in organic solvents: organic solvents (methanol, ethanol, dimethylformamide, dimethyl sulfoxide, ethyl acetate, chloroform, acetone, benzene)
Text: The deoxynarasin antibiotic complex comprises 20-deoxynarasin and 20-deoxy-epi-17-narasin which are obtained from the fermentation as a mixture. 20-Deoxynarasin and 20-deoxy-epi-17-narasin are separated from the deoxynarasin complex and isolated as individual compounds as hereinafter described. The deoxynarasin complex also contains minor factors which are removed by the procedures described. The deoxynarasin antibiotic complex is soluble in most organic solvents, but is insoluble in water.
(§1) For example, 20-deoxynarasin acid (435.1 mg) was dissolved in methanol (40 ml) and allowed to stand at room temperature for four hours. The solution was then evaporated to dryness under vacuum; the residue was redissolved in dioxane and lyophilized to give 417.8 mg of 20-deoxy-epi-17-narasin acid.

Peptococcus prevoti 1281 = assay: agar-dilution MIC, anaerobic bacteria; format: cell-based; conditions: 24-hour incubation
Protocol: (§2) In one aspect, the deoxynarasin antibiotics inhibit the growth of anaerobic bacteria. The minimal inhibitory concentrations (MIC) at which 20-deoxy-epi-17-narasin (free acid) inhibits various anaerobic bacteria, determined by standard agar-dilution assay, are summarized in Table V. End points were read after 24-hour incubation period.

[1] = test system: Propionibacterium acnes 79; assay: agar-dilution MIC, anaerobic bacteria; format: cell-based; conditions: Cutibacterium acnes, 24-hour incubation
Protocol: as §2

[2] = test system: Peptostreptococcus intermedius 1264; assay: agar-dilution MIC, anaerobic bacteria; format: cell-based; conditions: 24-hour incubation
Protocol: as §2

[3] = test system: Peptostreptococcus anaerobius 1428; assay: agar-dilution MIC, anaerobic bacteria; format: cell-based; conditions: 24-hour incubation
Protocol: as §2

[4] = test system: Peptococcus asaccharolyticus 1302; assay: agar-dilution MIC, anaerobic bacteria; format: cell-based; conditions: Peptoniphilus asaccharolyticus, 24-hour incubation
Protocol: as §2

Bacteroides fragilis 111 = assay: agar-dilution MIC, anaerobic bacteria; format: cell-based; conditions: 24-hour incubation
Protocol: as §2

[5] = test system: Clostridium septicum 1128; assay: agar-dilution MIC, anaerobic bacteria; format: cell-based; conditions: 24-hour incubation
Protocol: as §2

[6] = test system: Eubacterium aerofaciens 1235; assay: agar-dilution MIC, anaerobic bacteria; format: cell-based; conditions: Collinsella aerofaciens, 24-hour incubation
Protocol: as §2

[7] = test system: Actinomyces israelii W855; assay: agar-dilution MIC, anaerobic bacteria; format: cell-based; conditions: 24-hour incubation
Protocol: as §2

rumen flora = assay: in vitro rumen volatile-fatty-acid (VFA) test; set-up: species or system ruminants
Text: As discussed, efficiency of carbohydrate utilization in ruminants is increased by treatments which stimulate the animal's rumen flora to produce propionate compounds rather than acetate or butyrate compounds. The efficiency of feed use can be monitored by observing the production and concentration of propionate compounds in rumen fluid, using methods as described in U.S. Pat. No. 4,038,384.
Results of in vitro tests with 20-deoxynarasin (Na salt) and 20-deoxy-epi-17-narasin (free acid), showing the ratio of volatile-fatty-acid (VFA) concentrations in treated flasks to concentrations in control flasks, are shown in Table VIII.

mice = assay: acute toxicity, intraperitoneal, mice; format: in vivo; conditions: intraperitoneally to mice
rhinovirus type 3 = assay: in vitro plaque suppression test; format: cell-based; conditions: rhinovirus type 3, in vitro
Text: (§3) The deoxynarasin antibiotics are also antiviral agents.

influenza A virus = assay: in vitro plaque suppression test; format: cell-based
Text: as §3

vacinnia virus = assay: in vitro plaque suppression test; format: cell-based
Text: as §3

herpesvirus = assay: in vitro plaque suppression test; format: cell-based
Text: as §3

[8] = test system: Streptococcus pyogenes (Group A); assay: disc-diffusion method, zone of inhibition; format: cell-based
Text: (§4) The deoxynarasin antibiotics of this invention are antibacterial agents. For example, the relative microbiological activity of 20-deoxy-epi-17-narasin (free acid) is described in Table IV. The conventional disc-diffusion method was used.

[9] = test system: Staphylococcus aureus 3074 (Penicillin G Resistant); assay: disc-diffusion method, zone of inhibition; format: cell-based
Text: as §4

[10] = test system: Staphlococcus aureus 3055; assay: disc-diffusion method, zone of inhibition; format: cell-based
Text: as §4

[11] = test system: Staphylococcus aureus 3130 (Methicillin Resistant); assay: disc-diffusion method, zone of inhibition; format: cell-based
Text: as §4

[12] = test system: Streptococcus sp. (Group D); assay: disc-diffusion method, zone of inhibition; format: cell-based
Text: as §4

Diplococcus pneumoniae = assay: disc-diffusion method, zone of inhibition; format: cell-based; conditions: Streptococcus pneumoniae
Text: as §4

Eimeria tenella [13] = assay: in vitro anticoccidial activity; format: cell-based
Text: Anticoccidial activity is an important property of the deoxynarasin antibiotics of this invention.

M. hyorhinis = assay: in vitro broth-dilution MIC, Mycoplasma; format: cell-based; conditions: Mesomycoplasma hyorhinis
Text: (§5) Activity against Mycoplasma is another useful aspect of the antimicrobial activity of the deoxynarasin antibiotics. Mycoplasma species, also known as pleuropneumonia-like (PPLO) organisms, are pathogenic to man and various animals. Agents active against PPLO organisms are especially needed by the poultry industry. The minimal inhibitory concentrations (MIC) of 20-deoxy-epi-17-narasin (free acid) against illustrative Mycoplasma species, as determined by in vitro broth-dilution studies, are summarized in Table VI.

M. gallisepticum = assay: in vitro broth-dilution MIC, Mycoplasma; format: cell-based; conditions: Mycoplasmoides gallisepticum
Text: as §5

M. synoviae = assay: in vitro broth-dilution MIC, Mycoplasma; format: cell-based; conditions: Mycoplasmopsis synoviae
Text: as §5

[14] = test system: Clostridium perfringens 81; assay: microbe, parasite or virus in culture; format: cell-based; conditions: Clostridium perfringens, 81, 24 h
[15] = biological target: cation transport ATPase in liver mitochondria; assay: in vitro ATPase inhibition; format: biochemical
Text: In yet another aspect, 20-deoxynarasin and its salts are active as an inhibitor of the enzyme ATPase. ATPase, an alkali-metal-sensitive enzyme found in cell membranes, is involved in the energy necessary for active transport. "Active transport" refers to the energy-requiring series of operations whereby intracellular and extracellular fluids maintain their compositions. Inhibitors of ATPase reduce the energy required for active transport. In vitro tests have shown that 20-deoxynarasin (Na salt) inhibits cation transport ATPase in liver mitochondria at a half effective concentration of 0.065 mcg/ml.

[16] = test system: isolated guinea-pig atria; assay: isolated guinea-pig atria contractility; format: cell-based; conditions: Cavia porcellus; 10^-5 molar; percentage of maximal contractile tension elicited by norepinephrine challenge; n=4; read-out: mean (± standard error) increase in contractile tension
Text: 20-Deoxynarasin and its salts are also potential cardiotonic agents. In tests using isolated guinea-pig atria, for example, 20-deoxynarasin increased cardiac contractility. Response to this test is expressed as a percentage of the maximal contractile tension that could be elicited by a challenge dose of norepinephrine (10^-4)M). 20-Deoxynarasin (Na salt), at a 10^-5 molar concentration, produced a mean (± standard error) increase in contractile tension of 43.8±1.4 (n=4) percent. For a more detailed description of this test, see U.S. Pat. No. 3,985,893.

Eimeria tenella [17] = assay: feeding experiment in young chickens challenged with Eimeria tenella; format: in vivo; conditions: 100 ppm in the diet, chicks challenged with Eimeria tenella, Na salt
Text: A feeding experiment in young chickens confirms that the deoxynarasin antibiotics have anticoccidial activity in vivo.

stability in alcohols = format: physicochemical; conditions: converts to 20-deoxy-epi-17-narasin free acid (methanol, room temperature, four hours)
Protocol: as §1

CCC(C(=O)O)C1OC(C(C)C(O)C(C)C(=O)C(CC)C2OC3(C=CCC4(CCC(C)(C5CCC(O)(CC)C(C)O5)O4)O3)C(C)CC2C)C(C)CC1C (stereo not drawn) [20-deoxy-epi-17-narasin]
solubility in nonpolar organic solvents (solubility): only slightly soluble | solubility in organic solvents (solubility): soluble | solubility in water (solubility): insoluble | MIC (Peptococcus prevoti 1281): 4 µg/mL (≈ 5.34 µM) | MIC [1]: 2 µg/mL (≈ 2.67 µM) | MIC [2]: 4 µg/mL (≈ 5.34 µM) | MIC [3]: 4 µg/mL (≈ 5.34 µM) | MIC [4]: 8 µg/mL (≈ 10.7 µM) | MIC (Bacteroides fragilis 111): > 128 µg/mL | MIC [5]: 16 µg/mL (≈ 21.4 µM) | MIC [6]: 16 µg/mL (≈ 21.4 µM) | MIC [7]: 8 µg/mL (≈ 10.7 µM) | Ratio of Treated to Control, Molar % acetate (rumen flora; dose 2 mcg/ml): 0.9581 | Ratio of Treated to Control, Molar % butyrate (rumen flora; dose 2 mcg/ml): 0.9414 | Ratio of Treated to Control, Molar % propionate (rumen flora; dose 2 mcg/ml): 1.0858 | Ratio of Treated to Control, Total VFA (rumen flora; dose 2 mcg/ml): 1.0717 | Ratio of Treated to Control, Molar % acetate (rumen flora; dose 5 mcg/ml): 0.9237 | Ratio of Treated to Control, Molar % butyrate (rumen flora; dose 5 mcg/ml): 0.8201 | Ratio of Treated to Control, Molar % propionate (rumen flora; dose 5 mcg/ml): 1.1836 | Ratio of Treated to Control, Total VFA (rumen flora; dose 5 mcg/ml): 1.0487 | Ratio of Treated to Control, Molar % acetate (rumen flora; dose 10 mcg/ml): 0.9093 | Ratio of Treated to Control, Molar % butyrate (rumen flora; dose 10 mcg/ml): 0.6560 | Ratio of Treated to Control, Molar % propionate (rumen flora; dose 10 mcg/ml): 1.2665 | Ratio of Treated to Control, Total VFA (rumen flora; dose 10 mcg/ml): 1.0325 | acute toxicity LD50 (mice): 201 mg/kg | antiviral activity (plaque suppression) (rhinovirus type 3): active | antiviral activity (plaque suppression) (influenza A virus): active | antiviral activity (plaque suppression) (vacinnia virus): active | antiviral activity (plaque suppression) (herpesvirus): active | zone of inhibition at 30 µg/disc ([8]; 30 mcg/disc): 10 mm | zone of inhibition at 300 µg/disc ([8]; 300 mcg/disc): 12 mm | zone of inhibition at 30 µg/disc ([9]; 30 mcg/disc): 15.4 mm | zone of inhibition at 300 µg/disc ([9]; 300 mcg/disc): 19.5 mm | zone of inhibition at 30 µg/disc ([10]; 30 mcg/disc): 13.8 mm | zone of inhibition at 300 µg/disc ([10]; 300 mcg/disc): 16.9 mm | zone of inhibition at 30 µg/disc ([11]; 30 mcg/disc): 17.2 mm | zone of inhibition at 300 µg/disc ([11]; 300 mcg/disc): 19 mm | zone of inhibition at 30 µg/disc ([12]; 30 mcg/disc): 14.6 mm | zone of inhibition at 300 µg/disc ([12]; 300 mcg/disc): 17 mm | zone of inhibition at 30 µg/disc (Diplococcus pneumoniae; 30 mcg/disc): 13 mm | zone of inhibition at 300 µg/disc (Diplococcus pneumoniae; 300 mcg/disc): 16 mm | level at which active against Eimeria tenella (as low as) (Eimeria tenella [13]): 0.2 ppm | MIC (M. hyorhinis): 50 µg/mL (≈ 66.8 µM) | MIC (M. gallisepticum): 25 µg/mL (≈ 33.4 µM) | MIC (M. synoviae): 50 µg/mL (≈ 66.8 µM) | MIC [14]: 16 µg/mL (≈ 21.4 µM)

CCC(C(=O)O)C1OC(C(C)C(O)C(C)C(=O)C(CC)C2OC3(C=CCC4(CCC(C)(C5CCC(O)(CC)C(C)O5)O4)O3)C(C)CC2C)C(C)CC1C (stereo not drawn) [20-deoxynarasin (Na salt)]
half effective concentration, inhibition of cation transport ATPase [15]: 0.065 µg/mL | acute toxicity LD50 (mice): 5 mg/kg | activation at 10 µM [16]: 43.8 ± 1.4% | minimal effective concentration (Eimeria tenella [13]; Eimeria tenella, read-out: level at which active against Eimeria tenella (as low as)): 0.2 µg/mL

CCC(C(=O)O)C1OC(C(C)C(O)C(C)C(=O)C(CC)C2OC3(C=CCC4(CCC(C)(C5CCC(O)(CC)C(C)O5)O4)O3)C(C)CC2C)C(C)CC1C (stereo not drawn) [20-deoxynarasin, 20-Deoxynarasin]
solubility in nonpolar organic solvents (solubility): only slightly soluble | solubility in organic solvents (solubility): soluble | solubility in water (solubility): insoluble | % Mortality (Eimeria tenella [17]): 0% | Weight Gain (Eimeria tenella [17]): 185 g | Lesion Score (Eimeria tenella [17]; maximum possible score = 4.00): 0.13 | Ratio of Treated to Control, Molar % acetate (rumen flora; dose 0.1 mcg/ml): 0.9504 | Ratio of Treated to Control, Molar % butyrate (rumen flora; dose 0.1 mcg/ml): 0.6870 | Ratio of Treated to Control, Molar % propionate (rumen flora; dose 0.1 mcg/ml): 1.2148 | Ratio of Treated to Control, Total VFA (rumen flora; dose 0.1 mcg/ml): 1.1892 | Ratio of Treated to Control, Molar % acetate (rumen flora; dose 0.3 mcg/ml): 0.9084 | Ratio of Treated to Control, Molar % butyrate (rumen flora; dose 0.3 mcg/ml): 0.4582 | Ratio of Treated to Control, Molar % propionate (rumen flora; dose 0.3 mcg/ml): 1.3799 | Ratio of Treated to Control, Total VFA (rumen flora; dose 0.3 mcg/ml): 1.1829 | Ratio of Treated to Control, Molar % acetate (rumen flora; dose 1 mcg/ml): 0.8727 | Ratio of Treated to Control, Molar % butyrate (rumen flora; dose 1 mcg/ml): 0.3942 | Ratio of Treated to Control, Molar % propionate (rumen flora; dose 1 mcg/ml): 1.4597 | Ratio of Treated to Control, Total VFA (rumen flora; dose 1 mcg/ml): 1.2096 | stability in alcohols (stability in alcohols): unstable
